Experimental findings from PubChem BioAssay (NCI) are described below.

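96-well plates; 48 h exposure; 5 concentrations. Endpoints by linear interpolation between flanking doses. Not reached: highest tested concentration assigned. Here, GI50 denotes the concentration required for 50% inhibition of growth. The concentration for full growth arrest is given as TGI.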

Common to all, as to assay: NCI-60 cell line screen, 48 h
Experiment [1] concerns ACHN renal.
Experiment [2] relates to HCC-2998 colon.
Experiment [3] deals with NCI-H226 lung.
Experiment [4] has as its system OVCAR-3 ovarian.
Experiment [5] concerns RXF 393 renal.
The test system of experiment [6] is SF-539 CNS.
For experiment [7], the system named is SK-MEL-5 melanoma.
The subject of experiment [8] is SR leukemia.
The test system of experiment [9] is HS 578T breast.
For experiment [10], the system named is OVCAR-4 ovarian.

As to `O=[N+]([O-])c1ccc(C[P+]2(c3ccccc3)CCCCC2)cc1`, the TGI in experiment [1], in experiment [2], in experiment [3], in [4], in experiment [5] and in [6] was more than 100 µM throughout. The TGI in [7] and in [8] was more than 100 µM each time.

For `NS(=O)(=O)c1nnc(NC(=O)N(c2ccccc2)c2ccccc2)s1`, the TGI is 73 µM in experiment [9]; more than 100 µM in experiment [3]; 69.7 µM in [4]; more than 100 µM in [10]; 51.4 µM in experiment [5]; 34.7 µM in experiment [6]. The compound further had a TGI in [7] of 67 µM.

On to `COCOc1ccc(C(=O)Oc2cccc3c2OC(C)(C)O3)c(OCOC)c1`, for which the TGI is more than 100 µM in [1]; more than 100 µM in experiment [2]; 86 µM in experiment [9]; more than 100 µM in experiment [3]; more than 100 µM in experiment [4]; more than 100 µM in experiment [5]. The TGI in experiment [6] and in [7] was more than 100 µM in each case.

In the case of `CSCC[C@@H](NC(=O)[C@H](CC(C)C)NC(=O)C(Cc1cnc[nH]1)NC(=O)CNC(=O)[C@@H](NC(=O)[C@H](C)NC(=O)[C@H](Cc1c[nH]c2ccccc12)NC(=O)[C@H](CCC(N)=O)NC(=O)[C@@H](N)CC(N)=O)C(C)C)C(N)=O` (some centres not stated), the TGI in [2], in [3], in experiment [4], in experiment [10], in experiment [5] and in experiment [6] was more than 100 µM throughout. The compound also displayed a TGI in experiment [7] of more than 100 µM.

Consider `O=C(/C=C/c1ccc(Cl)cc1)Oc1ccc(C=C2CCC/C(=C\c3ccc(OC(=O)/C=C/c4ccc(Cl)cc4)cc3)C2=O)cc1`, for which the TGI in [1], in experiment [2], in experiment [9], in experiment [3], in experiment [4] and in [10] was more than 100 µM throughout. The TGI in experiment [5], in experiment [6] and in [7] was more than 100 µM throughout.

For `C[n+]1cc2cc(O)c(O)cc2c2ccc3cc(O)c(O)cc3c21`, the TGI is more than 100 µM in [1]; more than 57.6 µM in experiment [2]; more than 48.2 µM in experiment [3]; 7.96 µM in [4]; more than 100 µM in experiment [10]; 9.34 µM in [5]. Moreover, the TGI in [6] was 7.77 µM; in [7], more than 54.8 µM; in [8], 9.53 µM.

Consider `c1ccc2c(c1)SCCCS2`, for which the TGI in experiment [2], in experiment [4], in [10], in [6], in experiment [7] and in experiment [8] was more than 100 µM throughout.

As to `CN(C)C(=O)C(F)(F)C(c1ccc(F)cc1)C1C(=O)N(C)C(=O)N(C)C1=O` (configuration not stated), the TGI in [1], in experiment [2], in experiment [3], in [4], in experiment [10] and in experiment [5] was more than 100 µM in each case. This compound also had a TGI in [7] of more than 100 µM.

`COc1cc2nc(-c3ccc(Cl)cc3)cc(OCCCN3CCOCC3)c2cc1OC`: the GI50 in experiment [1] is 3.64 µM; in experiment [3], 997 nM; in experiment [5], 1120 nM; in experiment [6], 2990 nM; in experiment [8], 414 nM. Further, the TGI in experiment [1] is more than 100 µM; in experiment [3], 4.81 µM; in experiment [5], 3.79 µM; in experiment [6] it was more than 100 µM; in [8], more than 100 µM.

With `COc1ccc(CNc2cnc3ccc(N)cc3n2)cc1`, the TGI in experiment [1], in experiment [2], in [3], in experiment [4], in experiment [10] and in experiment [6] was more than 100 µM throughout. The same compound came in with a TGI in experiment [7] of more than 100 µM.

In the case of `CN(C)c1nc(Oc2nc(N(C)C)nc(N(C)C)n2)nc(N(C)C)n1`, the TGI in experiment [1], in [2], in [3], in [4], in experiment [10] and in experiment [5] was more than 100 µM each time. Also, the TGI in experiment [6], in [7] and in experiment [8] was more than 100 µM in each case.

In the case of `CN(C)CCNC(=O)c1cccc2c1Nc1ccccc1S2`, the TGI in [2] came to 27.2 µM; in [3], 16.8 µM; in [4] it was 28 µM; in experiment [10], 26.4 µM; in [5], 23.6 µM; in [6] it was 28.8 µM. The compound further showed a TGI in experiment [7] of 26.3 µM.

For `COc1cc(C)c(CC/C(C)=C/Cc2cc(O)ccc2O)c(C)c1C`, the TGI in experiment [1], in experiment [2], in experiment [3], in experiment [4], in [10] and in experiment [5] was more than 25 µM in each case. The TGI in experiment [6], in experiment [7] and in experiment [8] was more than 25 µM throughout.

For the compound `c1c[nH]c(-c2cccc3nsnc23)c1`, the TGI in experiment [1], in experiment [2], in [3], in experiment [10], in [5] and in experiment [6] was more than 100 µM throughout. Besides, the TGI in [7] and in experiment [8] was more than 100 µM in each case.

As to `N#CNC(N)=NCc1ccccc1`, the TGI in experiment [1], in experiment [2], in experiment [3], in experiment [4], in experiment [10] and in experiment [6] was more than 100 µM in each case. Moreover, the TGI in experiment [7] and in [8] was more than 100 µM throughout.

`Cc1c(N2CCOCC2)nc2ccc(Cl)cc2c1-c1ccccc1`: the TGI in [1], in experiment [2], in experiment [4], in [10], in experiment [5] and in experiment [6] was more than 100 µM in each case. The TGI in experiment [7] is 65.7 µM; in experiment [8] it was more than 100 µM.
